Columns and labels:
P-gp [1] = molecular target: T1, P-gp (Homo sapiens, UniProt P08183); experiment: Bidirectional transport assay of single components (substrate assay), with or without verapamil; type: in vitro ADME; details: dog; for efflux ratio at 2 h: n = 3, read-out: ER (efflux ratio); for Papp A→B at 2 h / Papp B→A at 2 h: n = 3
Procedure: (§1) Before experiments, cell monolayers were washed twice with HBSS and equilibrated with HBSS for 30 min at 37 °C. HBSS containing different components was added to either the apical or basolateral chamber (donor chamber), and blank HBSS was added to the opposite chamber (receiver chamber). The total volume is 0.5 mL in the apical chamber and 1.5 mL in the basolateral chamber. Aliquots (100 μL) were taken from the acceptor chamber every 30 min for 2 h, and the same volume of HBSS was replenished. The transport samples were prepared using solid-phase extraction (SPE). Bond Elut C18 cartridge (Agilent, Santa Clara, CA, USA, 100 mg, 1 mL, 100/pk) was preconditioned with 1 mL methanol and 1 mL deionized water. Both 100 μL of bidirectional assay sample solution and 20 μL of IS solution was loaded onto the SPE cartridge, and the eluent that passed through the SPE cartridge was discarded. After washing with 1 mL of deionized water, 1 mL of the eluent solvent was introduced into the SPE cartridge for collection. The target solutions were concentrated by nitrogen blowing and re-dissolved. The amount of seven constituents of AR was determined by LC-MS/MS. The apparent permeability (Papp) of each substrate across MDCK-MDR1 cell monolayers in both the basolateral to apical (B > A) and apical to basolateral (A > B) directions were calculated using the following formula: […]

P-gp [2] = molecular target: T1, P-gp; experiment: Bidirectional transport assay of AR extract (seven components quantified); type: in vitro ADME; details: dog; for Papp A→B at 2 h / Papp B→A at 2 h: component given as AR extract (10 mg/mL in HBSS)
Procedure: as §1, with “The HBSS containing 10 mg/mL AR extract was prepared. Before” for “Before”, “AR extract” for “different components”

P-gp [3] = molecular target: T1, P-gp; experiment: Bidirectional transport assay of Rh-123 (P-gp inhibition); type: cell-based; details: for Papp (AP-BL) of rhodamine-123 in combination with the compound / Papp (BL-AP) of rhodamine-123 in combination with the compound: dog, MDCK-MDR1, 120 min
Procedure: The HBSS containing 10 μM Rh-123 and different AR components as described in the above Section 4.6.1 were prepared. Additionally, The HBSS containing 10 μM Rh-123 and 0.625 μM valspodar were prepared as the positive control. Before experiments, cell monolayers were washed twice with HBSS and equilibrated with HBSS for 30 min at 37 °C. HBSS containing AR component and Rh-123 was added to either the apical or basolateral chamber (donor chamber), and HBSS containing AR component was added to the opposite chamber (receiver chamber). The total volume is 0.5 mL in the apical chamber and 1.5 mL in the basolateral chamber. Aliquots (100 μL) were taken from the acceptor chamber at 15 min, 30 min, 60 min, 90 min, and 120 min, and the same volume of blank HBSS was replenished. The positive control group was treated as above. The apparent permeability (Papp) of each substrate across MDCK-MDR1 cell monolayers in both the basolateral to apical (B > A) and apical to basolateral (A > B) directions were calculated using the following formula: […]

[4] = tested on: MDCK-MDR1 monolayer cell model; experiment: Permeability assay validating the MDCK-MDR1 monolayer cell model; type: in vitro ADME; details: in 120 min
Description: In this study, an MDCK-MDR1 monolayer cell model was established.

[5] = MDCK-MDR1, Single Component Group, Papp(BL-AP)/Papp(AP-BL)
[6] = MDCK-MDR1, with verapamil (concentration not stated), Single Component + Verapamil Group
[7] = Single Component Group, MDCK-MDR1, 2.0 µM TAIII, 1.6 μM TBII, 4.7 μM MGF, 4.7 μM IMGF, 3.4 μM NMGF, 1.2 μM SSG, 3.9 μM BHI
[8] = Single Component Group, MDCK-MDR1
[9] = MDCK-MDR1, AR Extract Group, n = 3, read-out: ER (efflux ratio)
[10] = MDCK-MDR1, Single Component + Verapamil Group

T1 sequence (P08183 whole entry): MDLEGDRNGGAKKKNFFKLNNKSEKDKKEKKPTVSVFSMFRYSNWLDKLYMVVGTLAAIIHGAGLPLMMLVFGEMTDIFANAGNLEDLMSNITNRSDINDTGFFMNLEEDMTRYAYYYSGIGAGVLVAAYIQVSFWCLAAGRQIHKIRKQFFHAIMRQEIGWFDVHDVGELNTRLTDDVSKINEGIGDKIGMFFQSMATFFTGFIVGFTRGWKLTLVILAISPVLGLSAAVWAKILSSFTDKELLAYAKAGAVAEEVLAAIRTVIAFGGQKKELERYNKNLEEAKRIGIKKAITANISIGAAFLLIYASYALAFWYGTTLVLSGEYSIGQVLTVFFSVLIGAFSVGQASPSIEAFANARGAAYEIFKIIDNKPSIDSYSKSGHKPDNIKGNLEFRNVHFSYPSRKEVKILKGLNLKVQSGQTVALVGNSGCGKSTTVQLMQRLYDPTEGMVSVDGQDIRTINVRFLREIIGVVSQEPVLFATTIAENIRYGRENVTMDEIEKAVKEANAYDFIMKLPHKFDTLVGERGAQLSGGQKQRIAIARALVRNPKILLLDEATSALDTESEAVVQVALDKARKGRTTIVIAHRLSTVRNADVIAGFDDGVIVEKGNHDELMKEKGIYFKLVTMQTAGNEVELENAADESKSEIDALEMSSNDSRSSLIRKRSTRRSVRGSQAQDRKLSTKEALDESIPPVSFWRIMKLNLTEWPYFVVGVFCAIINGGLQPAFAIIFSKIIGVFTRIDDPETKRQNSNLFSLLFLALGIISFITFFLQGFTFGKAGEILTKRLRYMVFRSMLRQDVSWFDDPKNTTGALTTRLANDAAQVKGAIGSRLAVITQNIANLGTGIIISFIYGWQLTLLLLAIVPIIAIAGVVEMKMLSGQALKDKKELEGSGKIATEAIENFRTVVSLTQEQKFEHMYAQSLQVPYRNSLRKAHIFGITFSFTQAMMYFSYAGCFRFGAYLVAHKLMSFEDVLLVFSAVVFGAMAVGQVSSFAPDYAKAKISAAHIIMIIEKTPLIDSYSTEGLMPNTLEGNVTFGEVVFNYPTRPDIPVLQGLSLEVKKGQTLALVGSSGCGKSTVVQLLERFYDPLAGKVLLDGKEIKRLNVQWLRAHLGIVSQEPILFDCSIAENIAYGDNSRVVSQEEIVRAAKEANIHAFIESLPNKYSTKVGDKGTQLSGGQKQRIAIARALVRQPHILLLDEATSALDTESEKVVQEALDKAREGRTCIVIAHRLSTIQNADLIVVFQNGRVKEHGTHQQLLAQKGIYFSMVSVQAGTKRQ

Compound	efflux ratio at 2 h (P-gp [1]; [5])	efflux ratio at 2 h (P-gp [1]; [6])	Papp A→B at 2 h (P-gp [1]; [7]) [×10⁻⁶ cm/s]	Papp B→A at 2 h (P-gp [1]; [8]) [×10⁻⁶ cm/s]	efflux ratio at 2 h (P-gp [2]; [9])	Papp A→B at 2 h (P-gp [2]; MDCK-MDR1, n = 3) [×10⁻⁶ cm/s]	Papp B→A at 2 h (P-gp [2]; MDCK-MDR1, n = 3) [×10⁻⁶ cm/s]	Papp (AP-BL) of rhodamine-123 in combination with the compound (P-gp [3]) [×10⁻⁶ cm/s]	Papp (BL-AP) of rhodamine-123 in combination with the compound (P-gp [3]) [×10⁻⁶ cm/s]	Pe value [4]	Papp A→B at 2 h (P-gp [1]; [10]) [×10⁻⁶ cm/s]	Papp B→A at 2 h (P-gp [1]; [10]) [×10⁻⁶ cm/s]	efflux ratio at 2 h (P-gp [1]; [10])	Papp A→B at 2 h (P-gp [1]; MDCK-MDR1, Single Component Group, 2.0 µM TAIII, 1.6 μM TBII, 4.7 μM MGF, 4.7 μM IMGF, 3.4 μM NMGF, 1.2 μM SSG, 3.9 μM BHI) [×10⁻⁶ cm/s]	Papp B→A at 2 h (P-gp [1]; MDCK-MDR1, Single Component Group) [×10⁻⁶ cm/s]	ER (efflux ratio) of rhodamine-123 in combination with the compound (P-gp [3]; 10 μM Rh-123 with AR component or 0.625 μM valspodar, control ER 2.46, MDCK-MDR1, n = 3)	efflux ratio at 2 h (P-gp [2]; AR Extract Group, MDCK-MDR1, n = 3, read-out: ER (efflux ratio))
O=c1c2cc(O)c(O)cc2oc2c([C@@H]3O[C@H](CO)[C@@H](O)[C@H](O)[C@H]3O)c(O)cc(O)c12 [IMGF, isomangiferin]	< 2	0.55	0.0651	0.0702	0.91	0.0546	0.0495	–	–	–	–	–	–	–	–	–	–
C[C@@H](CC[C@@]1(O)O[C@H]2C[C@H]3[C@@H]4CC[C@@H]5C[C@@H](O[C@@H]6O[C@H](CO)[C@H](O)[C@H](O)[C@H]6O[C@@H]6O[C@H](CO)[C@@H](O)[C@H](O)[C@H]6O)CC[C@]5(C)[C@H]4CC[C@]3(C)[C@H]2[C@@H]1C)CO[C@@H]1O[C@H](CO)[C@@H](O)[C@H](O)[C@H]1O [TBII, timosaponin BII]	> 2	0.65	0.719	1.67	0.83	1.81	1.5	1.85	2.34	–	–	–	–	–	–	–	–
COc1ccc(-c2oc3c(CC=C(C)C)c(O)cc(O)c3c(=O)c2O[C@@H]2O[C@@H](C)[C@H](O)[C@@H](O)[C@H]2O)cc1 [BHI, baohuoside I]	2.26	1.08	0.24	0.72	–	0.155	0.298	1.73	2.53	–	–	–	–	–	–	–	–
O=c1c2cc(O)c(O)cc2oc2cc(O)c([C@@H]3O[C@H](CO)[C@@H](O)[C@H](O)[C@H]3O)c(O)c12 [MGF, mangiferin]	> 2	0.53	0.606	1.35	0.48	0.586	0.283	1.88	2.36	–	–	–	–	–	–	–	–
C[C@H]1CC[C@@]2(OC1)O[C@H]1C[C@H]3[C@@H]4CC[C@@H]5C[C@@H](O[C@@H]6O[C@H](CO)[C@H](O)[C@H](O)[C@H]6O[C@@H]6O[C@H](CO)[C@@H](O)[C@H](O)[C@H]6O)CC[C@]5(C)[C@H]4CC[C@]3(C)[C@H]1[C@@H]2C [TAIII, timosaponin AIII]	> 2	0.88	0.955	2.16	0.63	3.05	1.94	1.78	2.17	–	–	–	–	–	–	–	–
O=c1c2cc(O[C@@H]3O[C@H](CO)[C@@H](O)[C@H](O)[C@H]3O)c(O)cc2oc2cc(O)c([C@@H]3O[C@H](CO)[C@@H](O)[C@H](O)[C@H]3O)c(O)c12 [NMGF, neomangiferin]	< 2	0.52	0.121	0.137	0.67	0.0976	0.0654	–	–	–	–	–	–	–	–	–	–
O=C([O-])c1ccccc1-c1c2ccc(=O)cc-2oc2cc([O-])ccc12.[Na+].[Na+] [fluorescein sodium]	–	–	–	–	–	–	–	–	–	0.78 ± 0.02 × 10^−6 cm/s	–	–	–	–	–	–	–
C[C@H]1CC[C@@]2(OC1)O[C@H]1C[C@H]3[C@@H]4CC[C@@H]5C[C@@H](O)CC[C@]5(C)[C@H]4CC[C@]3(C)[C@H]1[C@@H]2C [SSG, sarsasapogenin]	< 2	–	–	–	–	0.0398	0.0347	–	–	–	0.0904	0.0374	0.41	0.0374	0.0566	no statistical difference	0.87

From article PMC9740098, “In Vitro Evaluation of the Interaction of Seven Biologically Active Components in Anemarrhenae rhizoma with P-gp” (Molecules, 2022)
